Measured values published in PMC10247892 (Biomedicine & Pharmacotherapy, 2023).

What was measured:
SARS-CoV-2 D614G = assay: SARS-CoV-2 antiviral activity in a human nasal epithelial model; format: cell-based; details: HNE model
SARS-CoV-2 = SARS-CoV-2 replication on Calu-3 cells; format: cell-based; details: non-cytotoxic concentrations
[1] = system: wildtype SARS-CoV-2 virus (D614G variant); parameters: species or system golden Syrian hamsters; details: hamster, in vivo

CCC(CC)COC(=O)[C@H](C)N[P@](=O)(OC[C@H]1O[C@@](C#N)(c2ccc3c(N)ncnn23)[C@H](O)[C@@H]1O)Oc1ccccc1 [Remdesivir]
Effect on viral replication (in words) (SARS-CoV-2 D614G; drug in the basal medium): completely blocked it

OC[C@H]1O[C@@H]2O[C@H]3[C@H](O)[C@@H](O)[C@@H](O[C@H]4[C@H](O)[C@@H](O)[C@@H](O[C@H]5[C@H](O)[C@@H](O)[C@@H](O[C@H]6[C@H](O)[C@@H](O)[C@@H](O[C@H]7[C@H](O)[C@@H](O)[C@@H](O[C@H]8[C@H](O)[C@@H](O)[C@@H](O[C@H]1[C@H](O)[C@H]2O)O[C@@H]8CO)O[C@@H]7CO)O[C@@H]6CO)O[C@@H]5CO)O[C@@H]4CO)O[C@@H]3CO [β-CD, ß-Cyclodextrin]
Inhibition of SARS-CoV-2 viral activity (in words) (SARS-CoV-2; D614G variant): inhibited the SARS-CoV-2 viral activity
Inhibition of SARS-CoV-2 viral activity (in words) (SARS-CoV-2; Omicron BA.1 variant): inhibited the SARS-CoV-2 viral activity

Methyl-β-cyclodextrin [MβCD]
Reduction of viral replication (SARS-CoV-2 D614G; 2.5 mM constantly in the basal side): 11%
Reduction of viral replication (SARS-CoV-2 D614G; 2.5 mM on the apical side (initial addition), 48 h pi): 74%
Prophylactic effect (in words) [1]: less potent prophylactic effect
